Structures are written as SMILES.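 In this assay, cells in 96-well plates receive the compound at five concentrations for 48 hours. Endpoints are linearly interpolated between the surrounding concentrations. GI50 = concentration required for 50% inhibition of growth. At the TGI there is no net growth.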 Bounds are passed on as bounds.

Among the test systems are SF-268 CNS; SR leukemia; HCT-15 colon; SN12C renal; SK-MEL-5 melanoma; HCC-2998 colon; NCI-H460 lung; HOP-92 NSCLC; HL-60(TB) leukemia; MALME-3M melanoma.
Common to all, as to experiment: inhibition of tumour cell growth, NCI panel, 48 h

As for `CCCCCC[C@H](C)NC(=O)c1ccc(Nc2nc3ccccc3c3occc23)cc1`, the GI50 is 6.39 µM in the assay with SF-268 CNS; 6.65 µM in the assay with SR leukemia; 8.42 µM in the assay with HCT-15 colon; 24.5 µM in the assay with SN12C renal; 2.24 µM in the assay on SK-MEL-5 melanoma; 1.26 µM in the assay on HCC-2998 colon. Moreover, the GI50 with NCI-H460 lung was 3.81 µM; with HOP-92 NSCLC it was 3 µM; in the assay on HL-60(TB) leukemia, 4.47 µM. The TGI is over 100 µM in the assay on SF-268 CNS; 55.5 µM in the assay with SR leukemia; 33 µM in the assay with HCT-15 colon; 97.3 µM in the assay on SN12C renal; 5.24 µM in the assay with SK-MEL-5 melanoma; 4.16 µM in the assay with HCC-2998 colon. Besides, the TGI with NCI-H460 lung was over 100 µM; in the assay on HOP-92 NSCLC it was 50.4 µM; in the assay with HL-60(TB) leukemia, 48.9 µM.
For the molecule `COc1cnc2c(c1)C(=O)c1c-2n(CCCN2CCNCC2)c(=O)c2cc([N+](=O)[O-])ccc12`, the GI50 in the assay on SR leukemia was 0.0424 µM; in the assay on HCT-15 colon it was 0.194 µM; in the assay with SK-MEL-5 melanoma, 0.403 µM; in the assay with HCC-2998 colon, 1.11 µM; in the assay on HOP-92 NSCLC it was 1.25 µM; in the assay on MALME-3M melanoma, 0.655 µM. In addition, the GI50 with HL-60(TB) leukemia is 0.113 µM. The TGI in the assay with SR leukemia was 1.9 µM; with HCT-15 colon, 1.54 µM; in the assay with SK-MEL-5 melanoma it was 1.62 µM; in the assay on HCC-2998 colon it was 2.36 µM; in the assay with HOP-92 NSCLC, 9.91 µM; in the assay with MALME-3M melanoma, 2.24 µM. This molecule also came in with a TGI in the assay with HL-60(TB) leukemia of 1.11 µM.
With `CCN(CC)CCn1c2ccccc2c(=O)c2c(OC)ccc(OC)c21`, the TGI in the assay with SF-268 CNS, with SR leukemia, in the assay on HCT-15 colon, in the assay with SN12C renal, in the assay with NCI-H460 lung and in the assay on HOP-92 NSCLC was over 100 µM throughout. Moreover, the TGI in the assay with MALME-3M melanoma and in the assay with HL-60(TB) leukemia was over 100 µM throughout.
As for `COC(=O)/C(=N\NC(N)=O)C(C(=O)C=C(C)C)C(=O)C(=O)Nc1ccc(Cl)c(Cl)c1` (centres undefined), the TGI in the assay on SF-268 CNS, in the assay with SR leukemia, with HCT-15 colon, in the assay on SN12C renal, in the assay with SK-MEL-5 melanoma and with HCC-2998 colon was over 100 µM throughout. For the same molecule, the TGI with NCI-H460 lung, in the assay on MALME-3M melanoma and in the assay with HL-60(TB) leukemia was over 100 µM throughout.
For `O=c1c(Cl)cc2nc3ccccc3sc-2c1Cl`, the TGI is 28.5 µM with SF-268 CNS; 30 µM in the assay on SR leukemia; 32.3 µM with HCT-15 colon; 31.9 µM in the assay on SN12C renal; 13.9 µM in the assay with SK-MEL-5 melanoma; 34.7 µM with HCC-2998 colon. The TGI in the assay on NCI-H460 lung was determined as 35.1 µM; with MALME-3M melanoma, 23.6 µM; in the assay on HL-60(TB) leukemia, 38.4 µM.
As to `C/C(=N/Nc1nc(C)cc(=O)[nH]1)C(=O)O`, the TGI in the assay on SF-268 CNS, in the assay on SR leukemia, in the assay with HCT-15 colon, in the assay with SN12C renal, with SK-MEL-5 melanoma and in the assay on HCC-2998 colon was over 100 µM throughout. Also, the TGI in the assay on NCI-H460 lung, with MALME-3M melanoma and with HL-60(TB) leukemia was over 100 µM in each case.
With `CCN(CC)CCNc1ccc2nc(C)n3c4ccc(O)cc4c(=O)c1c23`, the TGI was 12 µM in the assay on SF-268 CNS; 1.32 µM in the assay on SR leukemia; 5.83 µM in the assay on HCT-15 colon; 12.4 µM in the assay on SN12C renal; 15.6 µM in the assay on SK-MEL-5 melanoma; 1.99 µM in the assay on HCC-2998 colon. Moreover, the TGI with NCI-H460 lung worked out at 1.83 µM; with MALME-3M melanoma, 16.4 µM; in the assay on HL-60(TB) leukemia it was 2.78 µM.
On to `COc1cccc(NC(=O)C(=O)C2C=CCS2(=O)=O)c1` (centres undefined), for which the TGI in the assay with SF-268 CNS, in the assay on SR leukemia, in the assay on HCT-15 colon, in the assay with SN12C renal, with SK-MEL-5 melanoma and with HCC-2998 colon was over 100 µM throughout. For the same molecule, the TGI in the assay on NCI-H460 lung, with MALME-3M melanoma and in the assay with HL-60(TB) leukemia was over 100 µM in each case.
`Fc1ccc(Nc2nc3ccccc3c3occc23)cc1`: the GI50 is 7.54 µM in the assay with SF-268 CNS; 2.24 µM with SR leukemia; 9.58 µM in the assay with HCT-15 colon; 12.9 µM with SN12C renal; 16.5 µM in the assay with SK-MEL-5 melanoma; 1.96 µM with HCC-2998 colon. Besides, the GI50 was 4.61 µM in the assay on NCI-H460 lung, 5.8 µM with HOP-92 NSCLC and 10.8 µM with HL-60(TB) leukemia. For the same molecule, the TGI in the assay on SF-268 CNS was 24.1 µM; with SR leukemia, 16.4 µM; in the assay with HCT-15 colon, 21.4 µM; in the assay on SN12C renal, 27.2 µM; in the assay on SK-MEL-5 melanoma, 30.1 µM; in the assay with HCC-2998 colon, 7.31 µM. Further, the figures for the TGI with NCI-H460 lung, in the assay on HOP-92 NSCLC and in the assay on HL-60(TB) leukemia were 19 µM, 19.4 µM and 36.8 µM, respectively.
Turning to `CSc1ccc(C(=O)/C=C/c2ccccc2Cl)cc1`, the GI50 in the assay with SF-268 CNS is 22.4 µM; with SR leukemia, 2.23 µM; in the assay with HCT-15 colon, 7.73 µM; in the assay with SN12C renal, 17.3 µM; with SK-MEL-5 melanoma it was 16.7 µM; in the assay with HCC-2998 colon, 13.1 µM. Further, the results for the GI50 with NCI-H460 lung, in the assay on HOP-92 NSCLC and in the assay on HL-60(TB) leukemia were 25.2 µM, 15.5 µM and 19.5 µM, respectively. In addition, the TGI with SF-268 CNS was determined as 53.3 µM; in the assay with SR leukemia it was 22.4 µM; with HCT-15 colon, 28.9 µM; in the assay with SN12C renal, 32.7 µM; in the assay with SK-MEL-5 melanoma, 31.6 µM; with HCC-2998 colon it was 28.7 µM. For the same molecule, the TGI in the assay on NCI-H460 lung turned out to be 70 µM; with HOP-92 NSCLC, 32 µM; in the assay on HL-60(TB) leukemia it was 90.3 µM.
For the molecule `[CH3][Sn]([CH3])([CH3])[O][N+](=O)[O-]`, the GI50 was 3.63 µM in the assay on SF-268 CNS; 1.48 µM with SR leukemia; 2 µM with HCT-15 colon; 1.78 µM in the assay on SN12C renal; 1.52 µM with SK-MEL-5 melanoma; over 10 µM in the assay on HCC-2998 colon. Also, the results for the GI50 in the assay on NCI-H460 lung, in the assay with HOP-92 NSCLC and with HL-60(TB) leukemia were 8.25 µM, 3.39 µM and 4.03 µM, respectively. In addition, the TGI is over 10 µM in the assay with SF-268 CNS; 3.33 µM in the assay on SR leukemia; 4.13 µM in the assay on HCT-15 colon; 4.11 µM in the assay on SN12C renal; 2.97 µM with SK-MEL-5 melanoma; over 10 µM in the assay with HCC-2998 colon. Moreover, the TGI in the assay with NCI-H460 lung, in the assay on HOP-92 NSCLC and with HL-60(TB) leukemia was over 10 µM throughout.

The values above are taken from PubChem BioAssay (NCI).
